Reference: ChEMBL document CHEMBL4814009, “A new anti-austerity agent, 4'-O-methylgrynullarin from Derris scandens induces PANC-1 human pancreatic cancer cell death under nutrition starvation via inhibition of Akt/mTOR pathway” (2021)

Experiments:
[1] = system: MIA PaCa-2; test: Anti-austerity activity against human MIA PaCa-2 cells assessed as cell killing in nutrient deprived medium; assay type: functional
[2] = system: PSN1; test: Anti-austerity activity against human PSN1 cells assessed as cell killing in nutrient deprived medium; assay type: functional
[3] = Anti-austerity activity against human KLM-1 cells assessed as cell killing in nutrient deprived medium; assay type: functional
[4] = system: PANC-1; test: Anti-austerity activity against human PANC-1 cells assessed as cell killing in nutrient deprived medium; assay type: functional
[5] = molecular target: RAC-alpha serine/threonine-protein kinase (Homo sapiens) (UniProt P31749); test: Inhibition of Akt in human PANC-1 cells assessed as reduction in phosphorylation at Ser473 incubated for 6 hrs by Western blot analysis; assay type: cell-based; conditions: dose 1-10 µM
Chain of RAC-alpha serine/threonine-protein kinase (Homo sapiens) (P31749 whole entry): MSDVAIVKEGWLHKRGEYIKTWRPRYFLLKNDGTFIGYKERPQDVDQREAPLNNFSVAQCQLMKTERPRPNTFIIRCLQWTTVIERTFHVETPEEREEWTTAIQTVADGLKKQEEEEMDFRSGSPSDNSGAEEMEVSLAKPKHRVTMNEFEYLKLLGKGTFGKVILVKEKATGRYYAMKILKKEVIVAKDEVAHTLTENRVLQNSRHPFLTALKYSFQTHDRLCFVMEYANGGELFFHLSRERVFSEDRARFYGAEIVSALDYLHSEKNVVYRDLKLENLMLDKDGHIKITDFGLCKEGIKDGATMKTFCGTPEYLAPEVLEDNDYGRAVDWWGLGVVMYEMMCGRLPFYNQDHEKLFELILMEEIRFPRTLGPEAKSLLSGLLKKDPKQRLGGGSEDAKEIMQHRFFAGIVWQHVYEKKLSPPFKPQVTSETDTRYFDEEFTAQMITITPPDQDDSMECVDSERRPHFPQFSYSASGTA

[6] = system: PANC-1; test: Antimigratory activity against human PANC1 cells assessed as wound area at 25 uM cultured in nutrient rich DMEM medium imaged every 10 mins for 24 hrs by quantitative real-time imaging based wound healing assay (reference value: 35%); assay type: functional
[7] = system: PANC-1; test: Inhibition of colony formation in human PANC-1 cells in nutrient rich DMEM medium measured treated for 24 hrs followed by replaced with fresh medium measured after 10 days by crystal violet staining based assay; assay type: functional, cell-based; conditions: dose 6.25-25 µM
[8] = system: PANC-1; test: Induction of apoptosis in human PANC-1 cells assessed as cell morphology by measuring red fluorescence incubated for 24 hrs in nutrient deprived medium by acridine orange and ethidium bromide dye based fluorescence microscopy analysis; assay type: functional; conditions: dose 1-5 µM
[9] = molecular target: Serine/threonine-protein kinase mTOR (Homo sapiens) (UniProt P42345); test: Inhibition of mTOR in human PANC-1 cells assessed as reduction in phosphorylation at S2448 incubated for 6 hrs by Western blot analysis; assay type: cell-based; conditions: dose 1-10 µM

Q: Which PC50 [1] does the source give for CC(C)=CCc1cc(-c2coc3cc(O)c(CC=C(C)C)c(O)c3c2=O)cc(O)c1O here?
A: Its PC50 is 0.8 µM.

Q: What about the PC50 [2] of the same compound?
A: Its PC50 is 0.7 µM.

Q: What about the PC50 [3] of the same compound?
A: The PC50 was 0.9 µM.

Q: What about the PC50 [4] of the same compound?
A: Its PC50 is 0.7 µM.

Q: Which results are given for COc1cc(C[C@H]2C(=O)OC[C@@H]2Cc2ccc(OC)c(OC)c2)ccc1O [ARCTIGENIN]?
A: PC50 [1]: 1.9 µM; PC50 [2]: 0.7 µM; PC50 [3]: 0.8 µM; PC50 [4]: 0.7 µM

Q: With CC(C)=CCc1cc(-c2coc3c(CC=C(C)C)c(O)cc(O)c3c2=O)cc(O)c1O as the compound, how does the PC50 [1] read?
A: Its PC50 is 10.9 µM.

Q: And the PC50 [2]?
A: Its PC50 is 10.2 µM.

Q: What about the PC50 [3] of the same compound?
A: Its PC50 is 10.1 µM.

Q: What about the PC50 [4] of the same compound?
A: The PC50 was 10 µM.

Q: What does the source list for COc1c(O)cc(-c2coc3c(CC=C(C)C)c(O)cc(O)c3c2=O)cc1CC=C(C)C?
A: inhibition [5]: Dose-Dependent Effect; PC50 [1]: 1.2 µM; Activity [6]: 74%; PC50 [2]: 1.8 µM; inhibition [7]: Dose-Dependent Effect; PC50 [3]: 1.6 µM; Activity [8]: Dose-Dependent Effect; inhibition [9]: Dose-Dependent Effect; PC50 [4]: 1 µM

Q: What does the source list for CC(C)=CCc1cc(-c2coc3cc(O)c(CC=C(C)C)c(O)c3c2=O)ccc1O [LUPALBIGENIN]?
A: PC50 [1]: 1.3 µM; PC50 [2]: 1.5 µM; PC50 [3]: 1 µM; PC50 [4]: 1 µM
